Earlier results as cited in paper PMC9516332 (Frontiers in Oncology, 2022).
Where two headings read alike, the source gives them in different places.

Columns and labels:
[1] = molecular target: panel of 255 wild-type kinases (Homo sapiens, UniProt Q9H422); settings: kinase HIPK3, 1 µmol/L single concentration, cited from earlier work
[2] = molecular target: T1, panel of 255 wild-type kinases (Homo sapiens, UniProt Q8IW41); settings: MAPKAPK5, 1 µmol/L single concentration, cited from earlier work
T1 sequence (Q8IW41 1-473): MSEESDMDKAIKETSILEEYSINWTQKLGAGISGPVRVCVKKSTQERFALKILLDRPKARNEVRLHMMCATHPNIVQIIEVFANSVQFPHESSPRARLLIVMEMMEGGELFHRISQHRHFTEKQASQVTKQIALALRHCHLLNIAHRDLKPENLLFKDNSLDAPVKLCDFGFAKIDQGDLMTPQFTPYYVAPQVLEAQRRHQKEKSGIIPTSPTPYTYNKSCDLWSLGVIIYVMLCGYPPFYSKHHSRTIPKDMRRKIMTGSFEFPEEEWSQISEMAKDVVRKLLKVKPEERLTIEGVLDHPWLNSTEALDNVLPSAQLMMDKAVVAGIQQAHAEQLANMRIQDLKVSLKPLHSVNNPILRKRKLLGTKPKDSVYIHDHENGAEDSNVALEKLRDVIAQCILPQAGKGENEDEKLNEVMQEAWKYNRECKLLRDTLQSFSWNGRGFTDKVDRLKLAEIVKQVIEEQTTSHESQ

[3] = molecular target: panel of 255 wild-type kinases (Homo sapiens, UniProt P08069); settings: kinase IGF1R, 1 µmol/L single concentration, cited from earlier work
[4] = molecular target: panel of 255 wild-type kinases (Homo sapiens, UniProt P49137); settings: kinase MAPKAPK2, 1 µmol/L single concentration, cited from earlier work
[5] = molecular target: panel of 255 wild-type kinases (Homo sapiens, UniProt Q13131); settings: AMPKα1/β1/γ1 kinase assay, 1 µmol/L single concentration, cited from earlier work
[6] = molecular target: panel of 255 wild-type kinases (Homo sapiens, UniProt P14616); settings: kinase IRR, 1 µmol/L single concentration, cited from earlier work
[7] = molecular target: panel of 255 wild-type kinases (Homo sapiens, UniProt Q16288); settings: kinase TRKC, 1 µmol/L single concentration, cited from earlier work
[8] = molecular target: panel of 255 wild-type kinases (Homo sapiens, UniProt P12931); settings: kinase SRC, 1 µmol/L single concentration, cited from earlier work
[9] = molecular target: panel of 255 wild-type kinases (Homo sapiens, UniProt P43405); settings: kinase SYK, 1 µmol/L single concentration, cited from earlier work
[10] = molecular target: panel of 255 wild-type kinases (Homo sapiens, UniProt Q9UPE1); settings: MSSK1, 1 µmol/L single concentration, cited from earlier work
[11] = molecular target: T2, panel of 255 wild-type kinases (Homo sapiens, UniProt Q06418); settings: kinase TYRO3; 1 µmol/L single concentration; ref DOI: 10.1158/1535-7163.MCT-18-0877; cited from earlier work
T2 sequence (Q06418 41-890): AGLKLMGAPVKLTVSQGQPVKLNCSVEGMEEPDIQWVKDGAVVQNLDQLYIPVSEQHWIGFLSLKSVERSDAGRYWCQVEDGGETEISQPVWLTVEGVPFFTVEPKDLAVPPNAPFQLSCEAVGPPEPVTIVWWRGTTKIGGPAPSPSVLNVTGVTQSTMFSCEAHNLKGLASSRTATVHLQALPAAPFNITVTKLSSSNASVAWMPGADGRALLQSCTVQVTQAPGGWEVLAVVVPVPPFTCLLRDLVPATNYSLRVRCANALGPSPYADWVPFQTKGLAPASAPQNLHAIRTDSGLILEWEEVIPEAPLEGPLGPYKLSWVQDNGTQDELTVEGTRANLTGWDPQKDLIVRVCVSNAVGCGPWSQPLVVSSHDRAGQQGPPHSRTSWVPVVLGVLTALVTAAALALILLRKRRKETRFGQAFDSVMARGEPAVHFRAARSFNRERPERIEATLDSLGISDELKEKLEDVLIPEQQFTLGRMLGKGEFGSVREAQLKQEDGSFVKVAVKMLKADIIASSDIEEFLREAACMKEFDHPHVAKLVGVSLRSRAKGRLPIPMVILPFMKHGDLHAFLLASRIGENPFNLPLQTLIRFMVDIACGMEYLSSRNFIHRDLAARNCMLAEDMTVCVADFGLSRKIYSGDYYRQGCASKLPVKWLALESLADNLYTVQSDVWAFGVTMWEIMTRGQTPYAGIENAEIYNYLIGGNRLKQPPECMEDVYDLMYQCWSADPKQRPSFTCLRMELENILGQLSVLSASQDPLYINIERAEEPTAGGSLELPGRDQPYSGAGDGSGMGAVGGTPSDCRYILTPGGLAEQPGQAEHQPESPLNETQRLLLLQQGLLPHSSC

[12] = molecular target: panel of 255 wild-type kinases (Homo sapiens, UniProt Q9UM73); settings: ALK kinase assay; 1 µmol/L single concentration; ref DOI: 10.1158/1535-7163.MCT-18-0877; cited from earlier work
[13] = ref DOI: 10.1371/journal.pone.0092146
[14] = ref DOI: 10.1158/1535-7163.MCT-18-0877

| Compound | %-inhibition at 1 µmol/L, HIPK3 [1, 13] | %-inhibition at 1 µmol/L, HIPK3 [1, 14] | %-inhibition, MAPKAPK5 [2, 14] | %-inhibition at 1 µmol/L, IRR [6, 14] | %-inhibition at 1 µmol/L, TRKC [7, 14] | %-inhibition at 1 µmol/L, IGF1R [3, 14] | %-inhibition at 1 µmol/L, MAPKAPK2 [4, 14] | %-inhibition at 1 µmol/L, TYRO3 [11] | %-inhibition ALK [12] | %-inhibition at 1 µmol/L, SYK [9, 14] | %-inhibition, MSSK1 [10, 14] | %-inhibition AMPKα1/β1/γ1 [5, 14] | %-inhibition at 1 µmol/L, SRC [8, 14] | other results |
| --- | --- | --- | --- | --- | --- | --- | --- | --- | --- | --- | --- | --- | --- | --- |
| C[C@@H](Oc1cc(-c2cnn(C3CCNCC3)c2)cnc1N)c1c(Cl)ccc(F)c1Cl [crizotinib] | -6% |  |  |  |  |  |  |  |  |  |  |  |  | %-inhibition, MAPKAPK5 [2, 13]: -3.19%; %-inhibition at 1 µmol/L, IGF1R [3, 13]: 80%; %-inhibition at 1 µmol/L, MAPKAPK2 [4, 13]: -17%; %-inhibition AMPKα1/β1/γ1 [5, 13]: 16% |
| CC(C)(C)c1nc(-c2cccc(NS(=O)(=O)c3c(F)cccc3F)c2F)c(-c2ccnc(N)n2)s1 [dabrafenib] | 65% |  |  |  |  |  |  |  |  |  |  |  |  | %-inhibition at 1 µmol/L, IRR [6, 13]: 10%; %-inhibition at 1 µmol/L, TRKC [7, 13]: 81%; %-inhibition at 1 µmol/L, SRC [8, 13]: 68%; %-inhibition at 1 µmol/L, SYK [9, 13]: 37%; %-inhibition, MSSK1 [10, 13]: 2.55% |
| C=CC(=O)N1CCC[C@@H](n2nc(-c3ccc(Oc4ccccc4)cc3)c3c(N)ncnc32)C1 [ibrutinib] |  | 1.67% | -2.44% | 12% | 24% | 7.45% | -13% | 12% | 5.45% | -20% | 1.54% |  |  |  |
| CO[C@@H]1[C@H](N(C)C(=O)c2ccccc2)C[C@H]2O[C@]1(C)n1c3ccccc3c3c4c(c5c6ccccc6n2c5c31)C(=O)NC4 [midostaurin] |  |  | -2% | 26% |  | 24% | -12% | 31% | 87% | 97% | -9% | 86% | 79% |  |
| C=CC(=O)Nc1cc(Nc2nccc(-c3cn(C)c4ccccc34)n2)c(OC)cc1N(C)CCN(C)C [osimertinib] |  | 20% | 0.814% | 77% | -1.61% | 84% | -9% | 8% | 99% | -38% | 0.582% | -5% | 9% |  |
